Results taken from patent US20060121449A1, “Method for selection of compounds which inhibit clonal cell growth and use thereof” (priority 2002, published 2006).
Entries after “also recorded” stand apart in the source; their conditions may differ.

Experiments:
[1] = tested on: spleen antibody producing cells against sheep red cells; conditions: from the literature; cited from earlier work
[2] = tested on: polyoma virus transformed BHK21/c13 cells, line S100T1; test: Collocation inhibition test: clonal growth in sparsely and densely seeded areas of a cell density gradient of S100T1 cells in soft agar (Exp 13, 17, 19-26); conditions: for Clonal growth, H: high density area of cell gradient, High / Clonal growth, L: low density area of cell gradient, High / Clonal growth, L low density area of cell gradient, High: high concentration; for Compounds with significant inhibition of clonal growth of sparsely seeded cells: Exp 24, 180000 S100T1 cells/well; for Clonal growth, L low density area of cell gradient, High / Clonal growth, L low density area of cell gradient, Low / Effect on cell cloning in soft agar: preliminary results; for Clonal growth, L low density area of cell gradient, High / Clonal growth, L low density area of cell gradient, Low: Exp 13-18, 21-26; for Effect on cell cloning in soft agar: in words;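 for Clonal growth, L low density area of cell gradient, High: grades rise with clonal growth and minus or plus-minus means none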;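 for Clonal growth, L low density area of cell gradient, Low: grades rise with clonal growth and minus or plus-minus means none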;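 for all read-outs here: soft agar cultures in 24-well plates with a cell density gradient in the top layer, compounds applied from DMSO stocks, clonal growth scored in sparse versus dense areas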
[3] = tested on: polyoma virus transformed BHK21/c13 cells, clone S100T1; test: Clonal test: clonal growth of S100T1 cells in soft agar (Exp 2, 4, 6, 15, 16); format: cell-based, hamster; conditions: for Clonal growth: Exp 15, plate read the 5th day; for Significance of results: Exp 16, read after 14 days, ca. 223 μM; for Colony inhibiting activity for dosage within a range that might be therapeutic: Exp 16, about 40000 S100T1 cells/well; for Effect on clonal growth at 500 μM: DMSO toxicity might interfere
Method: The clonal test comprises: • 1. seeding cells in soft agar optionally containing growth factor(s); • 2. handling or incubation of special gels (e.g. ultra low gelling temperature agarose), including the production of cell density gradients. • 3. incubating in suitable temperature and atmosphere and; • 4. regular monitoring of the cells and development of clones.
The clonal test can be directed in fluid medium or in soft agar medium. Usually only transformed cells will form clones in soft agar.
After seeding and mixing, the tubes were placed in the refrigerator for about 1 hour to consolidate the ultra low melting point agarose.
120000 S100T1 cells of a polyoma virus transformed BHK21/c13 cell line, were seeded in 1 ml soft agar medium in Falcon 50 ml centrifuge tubes. […] On the top of the agar layer 0.5 ml fluid medium was added.
Agar cultures were prepared in wells of 24 well Falcon tissue culture plate. […] Insulin (Actrapid, Novo) was added in a concentration of 0.1 i.u./ml to BHK21/c13 cell cultures only.
The cells were all single cells. Each well received 32000 cells (Table 4). Plate: 24 wells Falcon tissue culture plate received a bottom layer composed as in Table 3:
The cells were all single cells.
The wells contained two layers, each of 0.3 ml agar.
The agarose was added to double distilled water and solved by heating in micro oven.

[4] = tested on: BHK21/c13 (normal baby hamster kidney cells); conditions: Tjøtta E. (1968); cited from earlier work
[5] = 4-OH-OPB analogues, S100T1 in soft agar
[6] = 4-OH-OPB analogues, S100T1 in soft agar, medium concentration
[7] = Experiment 24, H: area with high cell density, High concentration, 48 hours
[8] = Experiment 24, H: area with high cell density, Low concentration, 48 hours
[9] = Experiment 24, H: area with high cell density, Medium concentration, 48 hours
[10] = Experiment 24, L: area with low cell density, High concentration, 48 hours
[11] = Experiment 24, L: area with low cell density, Low concentration, 48 hours
[12] = Experiment 24, L: area with low cell density, Medium concentration, 48 hours
[13] = Summary Table 3 of analogue tests (experiments 22-25), H (high cell density), High concentration
[14] = Summary Table 3 of analogue tests (experiments 22-25), H (high cell density), Low concentration
[15] = Summary Table 3 of analogue tests (experiments 22-25), H (high cell density), Medium concentration
[16] = Summary Table 3 of analogue tests (experiments 22-25), L (low cell density), High concentration
[17] = Summary Table 3 of analogue tests (experiments 22-25), L (low cell density), Low concentration
[18] = Summary Table 3 of analogue tests (experiments 22-25), L (low cell density), Medium concentration
[19] = Exp 15, 5th day, Low conc., μM in wells: No 1 (4-OH—OPB) 2, 2 (Colchicine) 0.01, 3 (Diphenylhydantoin) 10, 4 (Podophyllotoxin) 0.03, 5 (Piroxicam) 5, 6 (Diclofenak) 10, 7 (Ibuprofen) 100, 8 (Naproxen) 50, 9 (Acetylsalicylic acid) 100, ” = as line above
[20] = High conc., μM in wells: No 1 (4-OH—OPB) 20, 2 (Colchicine) 0.1, 3 (Diphenylhydantoin) 100, 4 (Podophyllotoxin) 0.3, 5 (Piroxicam) 50, 6 (Diclofenak) 100, 7 (Ibuprofen) 1000, 8 (Naproxen) 500, 9 (Acetylsalicylic acid) 1000
[21] = Exp 15, 32000 S100T1 cells/well

Molecule: CN(C)N [1-1-dimethylhydrazine]
- Effect on development of plaques in Jerne's test [1]: enhances development of plaques

Molecule: Cc1ccc(C2(O)C(=O)N(c3ccccc3)N(c3ccccc3)C2=O)cc1 [#8, 1,2-diphenyl-4-hydroxy-4-(4-methylphenyl)-3,5-pyrazolidinedione]
- Clonal growth, H: high density area of cell gradient, High [2, 5]: ++
- Clonal growth, L: low density area of cell gradient, High [2, 5]: +
- Clonal growth, H: high density area of cell gradient, Medium [2, 6]: ++
- Compounds with significant inhibition of clonal growth of sparsely seeded cells [2]: None
- Clonal growth [2, 7]: +(+)
- Clonal growth [2, 8]: ++
- Clonal growth [2, 9]: ++
- Clonal growth [2, 10]: +(+)
- Clonal growth [2, 11]: +
- Clonal growth [2, 12]: +(+)
- Clonal growth [2, 13]: ++
- Clonal growth [2, 14]: +(+)
- Clonal growth [2, 15]: ++
- Clonal growth [2, 16]: +
- Clonal growth [2, 17]: +(+)
- Clonal growth [2, 18]: +(+)
- Significance [3, 19]: ”
- Clonal growth [3, 20]: −

Molecule: O=C1N(c2ccccc2)N(c2ccccc2)C(=O)C1(O)Cc1ccccc1 [#9, 4-benzyl-1,2-diphenyl-4-hydroxy-3,5-pyrazolidinedione]
- Clonal growth, H: high density area of cell gradient, High [2, 5]: ++
- Clonal growth, L: low density area of cell gradient, High [2, 5]: +
- Clonal growth, H: high density area of cell gradient, Low ([2]; 4-OH-OPB analogues, S100T1 in soft agar, low concentration): ++(+)
- Clonal growth, H: high density area of cell gradient, Medium [2, 6]: +++
- Clonal growth, L: low density area of cell gradient, Medium [2, 6]: +
- Compounds with significant inhibition of clonal growth of sparsely seeded cells [2]: None
- Clonal growth [2, 7]: ++
- Clonal growth [2, 8]: ++(+)
- Clonal growth [2, 9]: +++
- Clonal growth [2, 10]: +
- Clonal growth [2, 11]: +(+)
- Clonal growth [2, 12]: +
- Clonal growth [2, 13]: ++
- Clonal growth [2, 14]: ++(+)
- Clonal growth [2, 15]: +++
- Clonal growth [2, 16]: +
- Clonal growth [2, 17]: +(+)
- Clonal growth [2, 18]: +
- Significance [3, 19]: ”
- Clonal growth [3, 20]: −
- Clonal growth ([3]; Low conc., μM in wells: No 1 (4-OH—OPB) 2, 2 (Colchicine) 0.01, 3 (Diphenylhydantoin) 10, 4 (Podophyllotoxin) 0.03, 5 (Piroxicam) 5, 6 (Diclofenak) 10, 7 (Ibuprofen) 100, 8 (Naproxen) 50, 9 (Acetylsalicylic acid) 100): +

Molecule: CC(=O)Oc1ccccc1C(=O)O [Acetylsalicylic acid]
- Clonal growth, L low density area of cell gradient, High [2]: ((+))
- Clonal growth, L low density area of cell gradient, Low ([2]; low concentration): (+)
- Effect on cell cloning in soft agar [2]: Possible inhibition of clonal growth
- Effect on clonal growth at 100 μM [3, 21]: possibly inhibited significantly, but not completely
- Effect on clonal growth at 1000 μM ([3]; Exp 15, 32000 S100T1 cells/well, 30 μl DMSO in the well might be toxic): the inhibition is complete
- Significance of results ([3]; Acetylsalicylic acid No 10): probable
- Colony inhibiting activity for dosage within a range that might be therapeutic [3]: probably had a colony inhibiting activity
- Significance ([3]; Exp 16 day 14, Acetylsalicylic acid No 10, 215 μM): probable
- Growth ([3]; Exp 16 day 14, Acetylsalicylic acid No 10, 215 μM in wells): (+))
- Growth ([3]; Exp 16 day 14, Acetylsalicylic acid No 10, 464 μM in wells): (+))
- Significance ([3]; Exp 16 day 14, Acetylsalicylic acid No 10, 464 μM, doubtful because the solvent DMSO might be inhibiting): doubtful*
- Significance ([3]; Exp 16 day 21, Acetylsalicylic acid No 10, 215 μM): possible
- Growth ([3]; Exp 16 day 21, Acetylsalicylic acid No 10, 215 μM in wells): (+)
- Growth ([3]; Exp 16 day 21, Acetylsalicylic acid No 10, 464 μM in wells): (+))
- Significance ([3]; Exp 16 day 21, Acetylsalicylic acid No 10, 464 μM, *see conclusion (DMSO)): doubtful*
- Anti-clonal effect, summary of Exp 15 ([3]; S100T1 in soft agar): showed possible clonal inhibition at low

Molecule: O=C(O)Cc1ccccc1Nc1c(Cl)cccc1Cl [Diclofenac, reference compound]
- Clonal growth, L low density area of cell gradient, High [2]: ++
- Clonal growth, L low density area of cell gradient, Low ([2]; low concentration): ++(+)
- Effect on cell cloning in soft agar [2]: A possible increase of clonal growth
- Effect on clonal growth at 10 μM [3, 21]: probable significant increase in clonal growth
- Effect on clonal growth at 10-100 μM [3, 21]: no significant inhibition
- Anti-clonal effect, summary of Exp 15 ([3]; S100T1 in soft agar): increased clonal growth at low concentration

Molecule: COc1ccc2cc([C@H](C)C(=O)O)ccc2c1 [Naproxen]
- Effect on cell cloning in soft agar [2]: Clonal inhibition possible
- Effect on clonal growth at 500 μM [3, 21]: inhibited significantly
- Effect on clonal growth at 500 μM ([3]; Exp 15, 32000 S100T1 cells/well, listed as Naproxea): probably inhibited significantly
- Significance of results ([3]; Naproxen No 9): possible
- Colony inhibiting activity for dosage within a range that might be therapeutic [3]: probably had a colony inhibiting activity; also recorded: the same activity possibly existed
- Significance ([3]; Exp 16 day 14, Naproxen No 9, 108 μM): doubtful
- Growth ([3]; Exp 16 day 14, Naproxen No 9, 108 μM in wells): (+
- Significance ([3]; Exp 16 day 14, Naproxen No 9, 232 μM): possible*
- Growth ([3]; Exp 16 day 14, Naproxen No 9, 232 μM in wells): (+)
- Significance ([3]; Exp 16 day 21, Naproxen No 9, 108 μM): doubtful
- Growth ([3]; Exp 16 day 21, Naproxen No 9, 108 μM in wells): (+
- Significance ([3]; Exp 16 day 21, Naproxen No 9, 232 μM): possible*
- Growth ([3]; Exp 16 day 21, Naproxen No 9, 232 μM in wells): (+)
- Anti-clonal effect, summary of Exp 15 ([3]; S100T1 in soft agar): showed possible clonal inhibition at low
- Anti-clonal effect, summary of Exp 16 ([3]; S100T1 in soft agar): Ibuprofen and Naproxen possibly inhibited and Acetyl

Molecule: CN1C(C(=O)Nc2ccccn2)=C(O)c2ccccc2S1(=O)=O [Piroxicam]
- Clonal growth, L low density area of cell gradient, High [2]: +
- Clonal growth, L low density area of cell gradient, Low ([2]; low concentration): ++
- Effect on cell cloning in soft agar [2]: Clonal inhibition possible
- Effect on clonal growth at 50 μM [3, 21]: inhibited doubtfully; also recorded: possibly inhibited significantly
- Effect on clonal growth at 5-50 μM [3, 21]: did not inhibit clonal growth significantly
- Anti-clonal effect, summary of Exp 15 ([3]; S100T1 in soft agar): Piroxicam inhibited less, but similarly

Molecule: Insulin: Insulin Actrapid (Novo), 0.1 i.u./ml, growth factor
- Stimulation of clonal growth in soft agar culture [4]: stimulate clonal growth of normal, but not transformed cells
